Assay results published in patent publication US20240124496A1, “BORONIC ACID COMPOUND AND METHOD FOR PRODUCING SAME” (OSAKA UNIVERSITY, priority 2021, published 2024).
One block for each compound: values may come before it.

Key:
[1] = biological target: T1, amino acid transporter (LAT1) (Homo sapiens, UniProt Q01650); experiment: ^211At-AAMT intracellular uptake in MIA PaCa-2 cells; format: cell-based; details: 30 minutes; for inhibition of ^211At-AAMT intracellular uptake: excess amount (1 mM) added, ^211At-AAMT synthesized by the method of the present invention
T1 construct: endogenous in cells; host or cells: MIA PaCa-2 (human pancreatic cancer cells)
T1 sequence (Q01650 whole entry): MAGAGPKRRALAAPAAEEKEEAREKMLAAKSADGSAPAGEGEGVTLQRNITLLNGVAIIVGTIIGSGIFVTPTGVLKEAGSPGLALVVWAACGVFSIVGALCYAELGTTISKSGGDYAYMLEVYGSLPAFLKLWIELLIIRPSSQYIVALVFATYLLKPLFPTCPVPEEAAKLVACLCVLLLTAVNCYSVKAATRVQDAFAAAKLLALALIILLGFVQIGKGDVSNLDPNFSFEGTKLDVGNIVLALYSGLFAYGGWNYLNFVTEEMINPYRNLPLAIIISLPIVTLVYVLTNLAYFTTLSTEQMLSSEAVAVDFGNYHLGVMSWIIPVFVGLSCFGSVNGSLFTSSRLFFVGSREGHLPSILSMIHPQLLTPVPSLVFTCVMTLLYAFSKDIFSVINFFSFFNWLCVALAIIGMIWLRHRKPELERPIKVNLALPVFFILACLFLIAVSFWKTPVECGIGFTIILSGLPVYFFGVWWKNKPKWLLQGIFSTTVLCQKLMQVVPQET
T1 sequence (P08195 102-630 partner): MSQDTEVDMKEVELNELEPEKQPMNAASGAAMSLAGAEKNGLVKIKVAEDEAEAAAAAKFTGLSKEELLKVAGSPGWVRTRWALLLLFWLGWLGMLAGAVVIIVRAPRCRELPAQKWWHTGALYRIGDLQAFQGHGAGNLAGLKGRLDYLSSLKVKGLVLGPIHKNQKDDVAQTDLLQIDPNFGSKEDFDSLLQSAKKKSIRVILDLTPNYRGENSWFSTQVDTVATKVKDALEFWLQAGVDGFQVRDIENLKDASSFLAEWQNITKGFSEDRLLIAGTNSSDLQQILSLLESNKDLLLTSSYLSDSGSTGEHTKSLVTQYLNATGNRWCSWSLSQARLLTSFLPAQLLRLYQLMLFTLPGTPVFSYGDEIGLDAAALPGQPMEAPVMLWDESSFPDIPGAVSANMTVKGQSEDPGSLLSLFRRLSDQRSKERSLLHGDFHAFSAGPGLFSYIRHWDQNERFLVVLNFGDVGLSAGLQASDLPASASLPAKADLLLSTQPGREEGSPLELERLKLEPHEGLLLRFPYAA
Description: Human pancreatic cancer cells MIA PaCa-2 were seeded in a 24-well culture plate at a concentration of 1×10^5 cells/mL. After 2 days, the medium was removed, the cells were washed with PBS (−), and the medium was replaced with HEPES Buffer (amino acid free). To each well, the ^211At-AAMT synthesized by the method of the present invention or the conventional mercury method was added. In addition, an excess amount (1 mM) of BCH (LAT1 inhibitor) or unlabeled (AMT) was added. After culturing the cells for 30 minutes, the cells were washed with PBS (−), and lysed with 0.1 N NaOH, and the radioactivity of the lysate was measured. The ^211At-AAMT intracellular uptake (radioactivity count/protein amount) was calculated by correcting the radioactivity per protein amount. The results are shown in FIG. 6 (FIG. 6a: the method of the present invention, FIG. 6b: the conventional mercury method). In FIG. 6, CTL is control, BCH is 2-aminobicyclo[2,2,1]heptane-2-carboxylic acid, and AMT is α-methyltyrosine.

[2] = system: HEK293 cells; experiment: cell viability after addition of ^211At-AAMT; format: cell-based; details: 0.00-5.00 kBq per well, 24 hours, FIG. 7
Description: HEK293 cells were seeded in a 24-well culture plate at a concentration of 1×10^5 cells/mL. After 2 days, the medium was removed, the cells were washed with PBS (−), and the medium was replaced with HEPES Buffer (amino acid free). To each well, 0.00-5.00 kBq of the ^211At-AAMT synthesized by the method of the present invention or the conventional mercury method was added. After culturing the cells for 24 hours, the cell viability was examined. […] Industrial Applicability

[3] = produced by the mercury method; Non-Patent Document 1; cited from earlier work
[4] = stability after labeling; format: physicochemical; details: crude product solution with ascorbic acid added
Description: 3-(4,4,5,5-Tetramethyl-1,3,2-dioxaboran-2-yl)-α-methyl-L-tyrosine hydrochloride (Bpin-AMT) was dissolved in water to prepare a 1 w/v % aqueous solution. This aqueous solution (0.1 mL) was put in a microtube, and then aqueous [^131I]sodium iodide solution (0.03 mL, 1 MBq, Institute of Isotopes Co., Ltd.) and 0.4 w/v% aqueous N-bromosuccinimide (NBS) solution (0.03 mL) were added thereto, and the mixture was reacted at room temperature for 30 min. Then, to the reaction solution was added 3 w/v% aqueous ascorbic acid solution (0.03 mL) to stop the reaction to give a crude product solution of 3-iodo(^131I)-α-methyl-L-tyrosine (^131I-IAMT).
This crude product solution (1 μL) was analyzed by thin-layer chromatograph method (TLC). The sample was spotted on a thin-layer plate (silica gel G60), and a mixed solvent of acetonitrile/water (2/1) was used as a developing solvent. The thin-layer plate was exposed to an imaging plate for about 15 min, and then analyzed by a bioimage analyzer (Typhoon FLT7000, GE Healthcare, Chicago). 3-Iodo(^131I)-α-methyl-L-tyrosine was detected at Rf 0.72, and the radiochemical yield (RCY) was 86.1%. This compound was stable up to 7 days after labeling.

inhibition of ^211At-AAMT intracellular uptake [1]: significantly inhibited
SMILES: C[C@](N)(Cc1ccc(O)cc1)C(=O)O [AMT, α-methyltyrosine, reference compound]

SMILES: C[C@](N)(Cc1ccc(O)c([211At])c1)C(=O)O [^211At-AAMT, 3-astato (^211At)-α-methyl-L-tyrosine]
^211At-AAMT intracellular uptake and its inhibition by BCH and AMT, compared with the method of the present invention ([1]; synthesized by the conventional mercury method, FIG. 6b): consistent
^211At-AAMT intracellular uptake (radioactivity count/protein amount) ([1]; synthesized by the method of the present invention, control (CTL), FIG. 6a): strongly taken up
cell viability, compared with the method of the present invention ([2]; synthesized by the conventional mercury method): consistent
cell viability ([2]; synthesized by the method of the present invention): decreased in a dose-dependent manner
stability of the produced ^211At-AAMT [3]: unstable

inhibition of ^211At-AAMT intracellular uptake [1]: significantly inhibited
SMILES: NC1(C(=O)O)CC2CCC1C2 (centres unmarked) [BCH, 2-aminobicyclo[2,2,1]heptane-2-carboxylic acid, reference compound]

SMILES: C[C@](N)(Cc1ccc(O)c([131I])c1)C(=O)O [3-Iodo(^131I)-α-methyl-L-tyrosine, 3-iodo(^131I)-α-methyl-L-tyrosine]
time stable after labeling [4]: up to 7 days
